The values below come from US4034111A, “Compositions of and new uses for N-acylanilinobutyric acids” (Byk Gulden Lomberg Chemische Fabrik GmbH, priority 1974, dated 1977).

SMILES strings stand for the structures. Like-named read-outs stand apart in the source and are kept apart here.

For experiment [1], the system named is Pancreas secretion. As to the kind of experiment: Pancreas secretion (rat), i.d. administration. The conditions noted are these: intraduodenal, as sodium salt; for ED (50% increase): Rattus norvegicus, read-out: Increase in pancreas secretion by 50 % maximum (dose); for minimal effective dose: read-out: Increase in pancreas secretion: significantly effective of [ ]. It is filed as in vivo. Here is the method:
(§1) 1. Pancreas secretion (rat and cat) was examined along the lines of the method described by C. J. Dockray [J. Physiol., 225, 679, (1972)] for the rat and of that described by R. M. Case et al [J. Physiol., 223, 669, (1972)] for the cat.
(§2) The pancreas secretion and the bile of narcotized rats (female, 250 to 300 g, stomachs not empty; narcosis: 5 ml/kg of a 25 % urethane solution= 1.25 g/kg i.m.) and cats (both sexes, stomachs empty, 3 to 4 kg; narcosis: laughing gas and 60 mg/kg i.p. chloralose and 120 mg/kg i.p. urethane; permanent infusion of 0.4 to 2 E/kg/hour secretine= 1 to 6 ml/animal/hour,pylorus ligature) were separately transferred to the outside. After an initial period of about 2 hours compounds to be examined were administered intravenously to some and intraduodenally to other animals (volume of injection rat/cat 1 ml/kg). The volume and, respectively, the protein content (amylase, lipase, trypsine) of the fraction for 30 minutes and 15 minutes, respectively, were determined by conventional methods (Boehringer Test Combination 15899).

The subject of the next experiment is stomach ulcers. Description: Anti-ulcerogenity: suppression of acetylsalicylic acid-induced stomach ulcers in rats. It is filed as in vivo, rat (Sprague-Dawley, female). Particulars: 24 h, rat, oral, 30 min before 200 mg/kg acetylsalicylic acid, as sodium salt; for ED100: read-out: Suppression of the formation of stomach ulcers by 100 % (dose); for ED50: read-out: Suppression of the formation of stomach ulcers by 50% (dose). The protocol: 2. Anti-ulcerogenity was determined according to the method described in German Offenlegungsschrift DT-OS 2,118,200. Female Sprague-Dawley rats weighing about 200 g were kept on empty stomach for 24 hours. Then the compounds to be tested were administered orally in the form of their sodium salts in aqueous solution. After 30 minutes 200 mg/kg acetylsalicyclic acid (in 10 ml/kg of an 1% tylose suspension) were administered to cause stomach ulcers. Control groups received the corresponding amount of water instead of the sodium salt solutions. The ulcus rate was determined microscopically 24 hours after the administration of acetylsalicyclic acid.

Experiment [2] deals with serum enzyme increase (GOT/GPT) after allyl alcohol. As to the kind of experiment: Anti-hepatotoxic action: liver damage due to allyl alcohol, serum enzymes GOT/GPT. It is filed as in vivo, rat (Sprague-Dawley, female). Particulars: rat, oral, as sodium salt, serum 18 hours after allyl alcohol; read-out: Anti-hepatotoxic action: inhibition of serum enzyme increase by 25 % (GOT/GPT), damage due to allyl alcohol (dose). The protocol: (§3) 5. The determination of the anti-hepatotoxic and hepatotropic effect, respectively, was carried out by damaging the liver with allyl alcohol or galactosamine.
(a) Damaging due to allyl alcohol was carried out in accordance with the method of Renker et al. [Arzneimittelforschung, 22, 1009 (1972)] and of H. Rauen and Schriewer [Arzneimittelforschung, 21, 1194 (1971)]: female Sprague-Dawley-rats (250 to 300 g) received 3 ml/kg of 1.25 % allyl alcohol solution orally […] the compounds to be tested and the solvent (control) had also been administered orally. 18 hours after the damage due to allyl alcohol a blood sample was taken from the tail (0.5 to 0.7 ml) with slight ether narcosis. The serum enzymes GOT (glutamate oxalacetate transaminase) and GPT (glutamate pyruvate transminase) were determined with the help of the Boehringer Test Combination (No. 15955/56)-- micromethod.

For experiment [3], the system named is serum enzyme increase (GOT/GPT) after galactosamine. Description: Anti-hepatotoxic action: liver damage due to galactosamine, serum enzymes GOT/GPT. It is filed as in vivo, rat (Sprague-Dawley, male). Particulars: rat, oral, as sodium salt, serum 24 hours after 200 mg/kg d-galactosamine hydrochloride i.p.; read-out: Anti-hepatotoxic action: inhibition of serum enzyme increase by 25 % (GOT/GPT), damage due to galactosamine (dose). The protocol:
as §3
(b) Damaging, due to galactosamine (galactosamine hepatitis) was carried out in accordance with the method described in Arzneimittelforschung 23 Nr. 1a, 159 (1973): Male Sprague-Dawley rats (220 to 300 g) received 200 mg/kg d-galactosamine hydrochloride (Merck, Darmstadt, article no. 4085) intraperitoneally (injection volume 2 ml/kg) 1 hour after oral administration of the compounds to be tested. 24 hours after the damage due to galactosamine a blood sample was taken from the vena orbitalis with slight ether narcosis. The serum enzymes were determined as described under a.

Experiment [4] concerns Pancreas secretion. Description: Pancreas secretion (cat), pancreas liquid and protein (enzyme). It is filed as in vivo. Particulars: Felis catus, as sodium salt. Here is the method: as §1, §2
In the next experiment the test system is heart force of the heart. As to the kind of experiment: Heart force (left ventricle pressure course) in narcotized cats. It is filed as in vivo. Particulars: Felis catus, iv; cat, i.v. administration, as sodium salt; read-out: Increase in heart force of the heart, effective of. Here is the method:
3. The influence of the acylated anilinocarboxylic acids on heart force was determined along the lines of the method of W. Kroneberg et al. [Arzneimittelforschung, 22, 2 (1972)] by determination of the pressure course (isometrically) and pressure increase in the left heart ventricle upon intraveneous administration of the substance to narcotized cats.

The test system of experiment [5] is circulation of blood in internal organs (liver, pancreas). As to the kind of experiment: Blood circulation through internal organs (liver, pancreas). It counts as in vivo. Particulars: Felis catus, iv; cat, i.v. administration, as sodium salt; read-out: Increase in circulation of blood in internal organs (liver, pancreas), effective of. Here is the method:
4. The blood circulation through the liver was determined by the arterial blood supply (Art. hepatica) along the lines of the method described by Scholtholt (Habilitationsschrift, faculty of medicine, University of Dusseldorf (1969) "Experimental studies with regard to the blood circulation through the liver").

With `COc1ccc(N(CCCC(=O)O)C(=O)c2ccccc2)cc1` [(2), N-benzoyl-γ-(p-anisidino)butyric acid], in the experiment with Pancreas secretion [1], the ED (50% increase) is ~0.2 mg/kg and the minimal effective dose amounted to 0.05 mg/kg. For the same molecule, the ED100 in the experiment on stomach ulcers is 1.5 mg/kg. Further, in experiment [2], the ED25 fell in the range of 5 to 10 mg/kg. The ED25 in experiment [3] is ~50 mg/kg.

`COc1ccc(N(CCCC(=O)O)C(=O)c2ccc(Cl)cc2)cc1` [(3), N-(p-chlorobenzoyl)-γ-(p-anisidino)butyric acid]: the ED (50% increase) in the experiment on Pancreas secretion [1] was 1 to 5 mg/kg. The minimal effective dose is 0.05 mg/kg with Pancreas secretion [1], 1 mg/kg in the experiment on heart force of the heart and 1 to 5 mg/kg in experiment [5]. Also, the ED (100% increase) is ~10 mg/kg in the experiment with Pancreas secretion [4] (intraduodenal, i.d. administration, read-out: Increase in pancreas secretion by 100 % maximum: pancreas liquid (dose)); ~1 mg/kg with Pancreas secretion [4] (intraduodenal, i.d. administration, read-out: Increase in pancreas secretion by 100 % maximum: protein (enzyme) (dose)); < 10 mg/kg with Pancreas secretion [4] (iv, i.v. administration, read-out: Increase in pancreas secretion by 100 % maximum: protein (enzyme) (dose)). The ED50 in the experiment with stomach ulcers lay in the range of 1 to 5 mg/kg. The ED100 in the experiment on stomach ulcers is ~10 mg/kg. Besides, the figures for the ED25 in experiment [2] and in experiment [3] were 5 to 10 mg/kg and ~20 mg/kg, respectively.

As for `CCOc1ccc(N(CCCC(=O)O)C(=O)c2ccc(Cl)cc2)cc1` [(4), N-(p-chlorobenzoyl)-γ-(p-phenetidino)butyric acid], the ED (50% increase) with Pancreas secretion [1] is 0.1 to 0.5 mg/kg. The minimal effective dose was 0.05 mg/kg in the experiment on Pancreas secretion [1], 1 mg/kg in the experiment on heart force of the heart and 1 to 5 mg/kg in experiment [5]. Moreover, in the experiment with stomach ulcers, the ED100 was ~15 mg/kg. In addition, the ED25 in experiment [2] and in experiment [3] was ~10 mg/kg in each case.

On to `COc1ccc(N(CCCC(=O)O)C(=O)c2ccc(Cl)cc2)cc1OC` [(7), N-(p-chlorobenzoyl)-γ-(3,4-dimethoxyanilino)butyric acid], for which the ED (50% increase) with Pancreas secretion [1] is ~1 mg/kg. Also, the minimal effective dose is ~0.1 mg/kg in the experiment with Pancreas secretion [1], 1 to 5 mg/kg in the experiment with heart force of the heart and 1 mg/kg in experiment [5]. For the same molecule, in the experiment on stomach ulcers, the ED100 is ~5 mg/kg. For the same molecule, the ED25 in experiment [2] is 50 mg/kg; in experiment [3], ~20 mg/kg.

For the molecule `Cc1cccc(C)c1N(CCCC(=O)O)C(=O)c1ccccc1Cl` [(8), N-(o-chlorobenzoyl)-γ-(2,6-dimethylanilino)butyric acid], the ED (50% increase) with Pancreas secretion [1] was ~1 mg/kg. Further, the minimal effective dose in the experiment with Pancreas secretion [1] was 0.01 mg/kg; in the experiment on heart force of the heart it was 1 mg/kg; in experiment [5], 1 mg/kg. In addition, the ED100 in the experiment on stomach ulcers was ~30 mg/kg. In experiment [3], the ED25 is ~20 mg/kg.

For the molecule `Cc1cccc(C)c1N(CCCC(=O)O)C(=O)c1ccc(Cl)cc1` [(9), N-(p-chlorobenzoyl)-γ-(2,6-dimethylanilino)butyric acid], in the experiment on Pancreas secretion [1], the ED (50% increase) lay within 0.2 to 0.5 mg/kg. For the same molecule, the minimal effective dose in the experiment on Pancreas secretion [1] was 0.01 mg/kg; in the experiment on heart force of the heart it was 1 to 5 mg/kg; in experiment [5] it was 1 mg/kg. The ED50 in the experiment on stomach ulcers was 0.5 to 1 mg/kg. Besides, the ED100 in the experiment on stomach ulcers lay in the range of 1 to 5 mg/kg. The ED25 in experiment [2] is ~10 mg/kg; in experiment [3], 10 to 20 mg/kg.

As for `O=C(O)CCCN(C(=O)c1ccc(Cl)cc1)c1ccc(O)cc1` [(11), N-(p-chlorobenzoyl)-γ-(p-hydroxyanilino)butyric acid], in the experiment on Pancreas secretion [1], the ED (50% increase) was ~0.7 mg/kg. Besides, the minimal effective dose is 0.5 mg/kg with Pancreas secretion [1], ~1 mg/kg in the experiment on heart force of the heart and 1 to 5 mg/kg in experiment [5]. Also, the ED25 in experiment [2] is ~10 mg/kg.

Regarding `CC(=O)N(CCCC(=O)O)c1cccc(Cl)c1` [(12), N-acetyl-γ-(m-chloroanilino)butyric acid], in the experiment with Pancreas secretion [1], the ED (50% increase) was ~1 mg/kg and the minimal effective dose worked out at 0.1 mg/kg. Also, in the experiment with heart force of the heart, the minimal effective dose came out at 2.5 mg/kg.
